Results published in ChEMBL document CHEMBL1153788, “Bioactive diterpene derivatives from the marine sponge Spongionella sp” (J Nat Prod, 2009).

Columns and labels:
[1] = system: PBMC; experiment: Cytotoxicity against human PBMC cells assessed as decrease in luminescence after 24 hrs by luminescent cell viability assay; type: cell-based
[2] = system: K562; experiment: Cytotoxicity against human K562 cells assessed as decrease in luminescence after 24 hrs by luminescent cell viability assay; type: functional, cell-based; conditions: K562, 24 h

In the case of CC(=O)O[C@H]1O[C@H]2O[C@H]3OC(=O)/C(=C\CC4(OC(C)=O)CCCC(C)(C)C4)[C@H]3[C@H]2[C@@H]1OC(C)=O (stereo partly specified) [GRACILIN J], the IC50 [1] is reported as 30 µM and the IC50 [2] is reported as 15 µM.
CC(=O)O[C@@H]1O[C@H]2OC(=O)[C@H](C)C3=C([C@@]4(C)CCCC(C)(C)C4)CC[C@@H]1[C@H]32 was tested, and the IC50 [1] was 4.5 µM and the IC50 [2] was 2.3 µM.
Work on CC(=O)O[C@H]1O[C@H]2O[C@H]3OC(=O)/C(=C\C4CCCC(C)(C)C4)[C@H]3[C@H]2[C@@H]1OC(C)=O (stereo partly specified) [GRACILIN K] yielded an IC50 [1] of 9 µM and an IC50 [2] of 8.5 µM.
